Assays:
[1] = tested on: L1210 cells; experiment: Inhibition of L1210 cell growth in vitro; format: cell-based, murine
Description: (§1) Two leukemia cell lines (L1210 and L5178Y) and two solid tumor cell lines (Sarcoma 180 and Walker 256) were used in these studies.
(§2) Logarithmically growing L1210 cells (approximately 3×10^5 cells/ml) were diluted with Fischer's medium (containing 10% horse serum) to an approximate concentration of 5×10^4 cells/ml. Cells were planted in duplicate into 15 ml culture tubes containing either no drug or various amounts of drug, and incubated for 48 hours at 37° C. before being counted.
*ED50 = the concentration of drug required to reduce the cell count
to 50%, determined by plotting the cell count versus drug concentration.

[2] = tested on: murine tumor cell lines (L5178Y, Sarcoma-180, Walker-256); experiment: Comparison with methotrexate against murine tumor cell lines in vitro; format: cell-based; details: all of the murine tumor cell lines tested
Description: as §1, §2
(§3) Trimetrexate was also evaluated in a similar manner side-by-side with methotrexate for its effect on the growth of three additional murine cell lines (L5178Y, Sarcoma-180, and Walkler-256) and three human cell lines (acute myelogenous leukemia K-562, T-cell 8402, and B-cell 8392), propagated in vitro.

[3] = tested on: human cell lines (K-562, T-cell 8402, B-cell 8392); experiment: Comparison with methotrexate against human cell lines in vitro; format: cell-based
Description: as §2, §3

[4] = tested on: Miscell. tumors; experiment: Human tumor cloning system, miscellaneous tumors; format: cell-based; details: one hour, 10 specimens
From the text: The activity of trimetrexate was compared with that of methotrexate in tests with a human tumor cloning system (Latham, et al., Proc. Am. Assoc. Cancer Res., 24: 278 (1983)). The data from these tests appear in Table III were the activities are expressed as the numbers of tumors with 50% or greater reduction in tumor colony forming units after one hour exposure to the drug.

[5] = tested on: Early Stage P388 Leukemia; experiment: Combination chemotherapy, therapeutic synergy against early stage P388 leukemia; format: in vivo, mouse; details: Test 1
Description: Several studies were carried out to determine the potential for therapeutic synergy of trimetrexate with several clinically active anticancer agents. […] (See, for example, Vendetti, "Relevance of Transplantable Animal-Tumor Systems to the Selection of New Agents for Clinical Trial," Pharmacological Basis of Cancer Chemotherapy. Williams and Wilkins, Baltimore, 1975, and Simpson Herren, et al., "Evaluation of In Vivo Tumor Models for Predicting Clinical Activity for Anticancer Drugs," Proc. Am. Assoc. Cancer Res., 26: 330 (1985).
Differences in cell kill of greater than ten-fold (one log) were considered indicative of therapeutic synergy.
CD2F1 mice were quarantined for at least two weeks prior to allocation to test groups. P388 leukemia was passaged in DBA2 mice according to standard protocols of the National Cancer Institute. On Day 0 of a given test, all mice in the test were randomized, injected intraperitoneally with suitably diluted ascites fluid from P388 tumor-bearing donor mice and rerandomized to test cages.
The initial inoculum for all but titration groups was 10^6 cells as determined by hemocytometer count. Each experiment contained an internal control and tumor titration which enabled the determination of the tumor doubling time and estimates of the log cell kill and number of tumor cells surviving treatment.
Drug treatment was begun either on Day 1 or on Day 4 depending upon the relative activity of the agents being tested.
All of the drugs were injected within one hour of dissolution, with the exception of trimetrexate which was made up fresh twice daily. All mice were treated on the basis of average cage-group weight.
In drug combination regimens, trimetrexate was given approximately 30 minutes before the other therapeutic agents when the route of administration of the other agent was ip. […]
Group average weights were determined for all groups on Days 1, 5, and 9 for "early stage" P388 tests and on Days 4, 8, and 12 for "advanced stage" P388 tests. Animals were monitored for life span. […]

[6] = tested on: non-small cell lung cancer; experiment: Phase I clinical trials, non-small cell lung cancer; format: in vivo, human; details: single agent
Description: (§4) Several Phase I clinical trials employing trimetrexate in human patients were carried out. In one study, 36 patients were treated with trimetrexate as a single agent at daily doses of 0.5 mg/m^2 /day to 12 mg/m^2 /day administered intravenously for five days.
(§5) In additional Phase I clinical studies, patients were administered trimetrexate with single intravenous doses ranging between 5 and 450 mg/m^2 and with weekly doses of slightly greater than 100 mg/m^2.

[7] = tested on: head and neck (squamous) cancers; experiment: Phase I clinical trials, head and neck (squamous) cancers; format: in vivo, human; details: single agent
Description: as §4, §5

[8] = tested on: cancer of the pancreas; experiment: Phase I clinical trials, cancer of the pancreas; format: in vivo, human; details: single agent
Description: as §4, §5

[9] = tested on: salivary gland cancer; experiment: Phase I clinical trials, salivary gland cancer; format: in vivo, human; details: single agent
Description: as §4, §5

[10] = tested on: metastatic squamous cell cancer of the head and neck; experiment: Phase II trial, metastatic squamous cell cancer of the head and neck; format: in vivo, human
Description: The efficacy and safety of trimetrexate in the treatment of patients with metastatic squamous cell cancer of the head and neck was evaluated in an 11-center Phase II study.
The primary sites of disease in the patients included head and neck (not otherwise specified), hypopharynx, floor of the mouth, oropharynx, tongue, and other parts of the mouth, nasal cavity, and larynx.
Patients were initially treated intravenously with 8 mg/m^2 /day of trimetrexate on Days 1 through 5 of a 21-day treatment cycle. Patients were evaluated after each treatment course and were withdrawn from the study if progressive disease was documented. Patients were eligible to received six courses of treatment if stable disease was documented, or were eligible to receive continued treatment with trimetrexate if a response was documented.

[11] = tested on: breast cancer; experiment: Phase II trial, breast cancer; format: in vivo, human
Description: The efficacy and safety of trimetrexate in the treatment of patients with breast cancer was evaluated in an 10-center Phase II study. Twenty-eight patients participated in the multicenter study, with a group of 20 patients considered evaluable. […] All patients had metastatic disease and the principal sites of metastasis included lung, bone, and liver.
Patients were initially treated intravenously with 8 mg/m^2 /day of trimetrexate on Days 1 through 5 of a 21-day treatment cycle. Patients were evaluated after each treatment course and were withdrawn from the study if progressive disease was documented. Patients were eligible to received six courses of treatment if stable disease was documented; treatment beyond six courses was left to the discretion of the physician. The dose of trimetrexate was adjusted for each patient prior to each subsequent course of treatment based upon the patient reaction to the drug in the preceding course of treatment, and ranged from 8 mg/m^2 /day to about […]. A total of 91 courses of treatment were administered to the patients in the study.

[12] = Oral bioavailability; details: in vivo, administered orally
[13] = tested on: transplanted rodent tumors which are resistant to methotrexate; experiment: Activity against methotrexate-resistant transplanted rodent tumors; details: in vivo

For `COc1cc(NCc2ccc3nc(N)nc(N)c3c2C)cc(OC)c1OC` [Trimetrexate, 5-methyl-6-[[(3,4,5-trimethoxyphenyl)amino]methyl]-2,4-quinazolinediamine], the “inhibition of L1210 cell growth” value [1] was “potent inhibitor of L1210 cell growth”, the IC50 ([1]; Mus musculus, L1210, concentration required to reduce the cell count to 50%, 48 hours at 37° C, read-out: ED50 for L1210 Cells) was 7 nM and the “potency relative to methotrexate” value [2] was “more potent than methotrexate”. For the same molecule, the “effectiveness relative to methotrexate” value [3] was “more effective in inhibiting cell growth in vitro than was methotrexate”, the “Number of Tumors with 50% or Greater Decrease in Tumor Colony Forming Units” value ([4]; trimetrexate 0.1 μg/ml) was 2 and the “Number of Tumors with 50% or Greater Decrease in Tumor Colony Forming Units” value ([4]; trimetrexate 1.0 μg/ml) was 1. For the same molecule, the “single agent activity” value [5] was “the more active of the two single agents”, the “patients with favorable responses” value [6] was “two” and the “patients with favorable responses” value [7] was “two”. For the same molecule, the “patients with favorable responses” value [8] was “one”, the “patients with favorable responses” value [9] was “two” and the “patients with partial response” value ([10]; 38 evaluable patients, initial 8 mg/m^2/day iv Days 1-5 of 21-day cycle) was “Ten”. For the same molecule, the partial response rate ([10]; 95% confidence interval 12-40%, evaluable patients) was 26%, the “patients with stable disease” value ([10]; in vivo) was “Nineteen” and the “median duration of response” value ([10]; range 4.1-59+ weeks, ten responders) was 12.2 weeks. The “median time to progressive disease” value ([10]; range 9.3-74+ weeks) was 19.1 weeks, the “patients with stable disease” value ([11]; 20 evaluable patients) was 10 patients and the “patients with partial response” value ([11]; 20 evaluable patients, initial 8 mg/m^2/day iv Days 1-5 of 21-day cycle) was 3 patients. For the same molecule, the partial response rate ([11]; p5% confidence interval 0-30.6%, 20 evaluable patients) was 15%, the “median duration of partial response” value ([11]; range 6.4-18.7+ weeks) was 13.1 weeks and the bioavailability [12] was ~80%. For the same molecule, the “activity against methotrexate-resistant transplanted rodent tumors” value [13] was “activity against a variety of transplanted rodent tumors”.

Source: patent publication US4853221A, “Method for treating non-small cell lung cancer, head and neck cancers and breast cancer” (Warner-Lambert Company, priority 1987, dated 1989)
